Source: patent US11878965B2, “Inhibitors of peptidylarginine deiminases” (Gilead Sciences, Inc., priority 2020, dated 2024)

The compounds below were run against human PAD4 (Homo sapiens (Human), UniProt Q9UM07) (assay: In Vitro PAD4 BAEE Biochemical Assay). Details: human PAD4, BAEE substrate; 5 nM PAD4, 2 mM calcium chloride, 3 mM BAEE; geometric mean of multiple experiments.
Sequence of human PAD4 (Q9UM07 2-663): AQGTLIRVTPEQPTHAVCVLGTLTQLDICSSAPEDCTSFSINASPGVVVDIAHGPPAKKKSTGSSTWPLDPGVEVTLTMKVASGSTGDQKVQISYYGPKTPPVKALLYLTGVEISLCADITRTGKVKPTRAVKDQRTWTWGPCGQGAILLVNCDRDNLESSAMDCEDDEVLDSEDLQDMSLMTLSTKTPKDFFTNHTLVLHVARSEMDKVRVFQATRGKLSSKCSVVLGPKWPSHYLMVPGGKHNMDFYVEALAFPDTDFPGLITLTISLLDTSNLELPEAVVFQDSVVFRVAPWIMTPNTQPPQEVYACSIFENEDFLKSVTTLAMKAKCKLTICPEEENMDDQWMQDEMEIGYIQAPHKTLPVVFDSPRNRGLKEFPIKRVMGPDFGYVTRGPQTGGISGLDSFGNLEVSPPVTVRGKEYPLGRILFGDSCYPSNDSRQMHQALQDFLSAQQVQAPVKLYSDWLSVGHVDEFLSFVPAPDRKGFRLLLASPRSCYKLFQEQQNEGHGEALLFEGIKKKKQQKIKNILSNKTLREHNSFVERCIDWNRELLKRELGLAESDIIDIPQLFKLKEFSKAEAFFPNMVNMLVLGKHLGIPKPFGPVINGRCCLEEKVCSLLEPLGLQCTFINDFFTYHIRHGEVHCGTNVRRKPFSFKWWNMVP
Method: The PCR product was ligated into linearized pET-SUMO vector (Invitrogen, Carlsbad, CA), which is part of the Champion™ pET SUMO Protein Expression System. After sequence verification for the correct orientation, the pET-SUMO-hPAD4 expression plasmid was transformed into BL21(DE3) cells.
E. Coli BL21(DE3) cells were inoculated in LB medium with kanamycin at 37° C. until A600 nm reached about 0.5. Protein expression was induced by addition of 0.5 mM IPTG (final) and continued overnight at 16° C. at 220 rpm.
Cells were harvested by centrifugation at 5000 rpm for 10 minutes at 4° C. The pellet was resuspended in 300 ml lysis buffer (20 mM Tris-HCl, pH 8.0, 1 mM EDTA, 500 mM NaCl, 1 mM (tris(2-carboxyethyl)phosphine) (TCEP), 10% glycerol, and 1% Triton X100 and EDTA free protease inhibitor) and lysed by 3× passage through a microfluidizer (Microfluidics, Newton, MA) at 18,000 psi. The cell lysate was clarified by centrifugation at 30,000 rpm for 60 minutes at 4° C. The supernatant was applied to a 5 ml Ni-HP (GE HealthCare Cat #17524701) column preequilibrated in Ni-A buffer (20 mM Tris-HCl, pH 8.0, 20 mM Imidazole, 1 mM TCEP, 10% glycerol, and 400 mM NaCl). Bound protein was eluted with a 0-100% linear gradient of 100 mL Ni-B buffer (Ni A buffer+0.5 M Imidazole).
The His-Sumo tag was cleaved using sumo protease (Thermo Fisher Cat #: 12588018) while dialyzing in buffer (20 mM Tris-HCl, pH 8.0, 1 mM EDTA, 500 mM NaCl, 1 mM TCEP, 10% glycerol). The protein was then reloaded onto a Ni-HP column for a reverse purification step and recovered in flow through fraction. The protein with His-Sumo tag removed was then polished using a 16/60 Superdex-200 gel filtration column with gel filtration buffer (20 mM Tris pH 8.0, NaCl 400 mM and 1 mM TCEP). The fractions containing the protein were pulled and frozen at −80° C.
In Vitro PAD4 BAEE Biochemical Assay
The enzymatic activity of human PAD4 was monitored in a biochemical assay in the presence or absence of compounds using the small peptidyl arginine mimic BAEE (Nα-Benzoyl-L-arginine ethyl ester hydrochloride) as substrate. PAD4 activity led to deimination of BAEE and release of ammonia. Levels of ammonia were monitored by using an amine coupling reaction and were indicative of PAD4 enzymatic activity.
One hundred nanoliters of test compounds dissolved in DMSO at various concentrations were dispensed into a 384-well black OptiPlate using a Labcyte Echo instrument. Ten microliters of a solution of recombinant PAD4 and calcium chloride diluted in PAD4 assay buffer (50 mM MOPS [3-(N-morpholino) propanesulfonic acid], pH 7.6; 50 mM sodium chloride; 0.05% Tween-20; 2 mM dithiothreitol) was added to the compound-containing plate and was incubated for 30 minutes at 25° C. Ten microliters of a solution of BAEE (Sigma-Aldrich #B4500) diluted in PAD4 assay buffer was then added to start the reaction. Final concentrations were 5 nM PAD4, 2 mM calcium chloride, and 3 mM BAEE. The reaction mixture was incubated at 25° C. for 2 hours and was stopped with the addition of 10 microliters of a solution of 75 mM EDTA (Ethylenediaminetetraacetic acid) in PAD4 assay buffer. Thirty microliters of detection solution (5 mM o-phthalaldehyde, 50 mM MOPS [3-(N-morpholino) propanesulfonic acid], pH 7.6; 50 mM sodium chloride; 0.05% Tween-20; 5 mM dithiothreitol) was then added and the reaction was incubated for 1 hour at 25° C. The level of fluorescent thiol-substituted isoindole resulting from the reaction of ammonia, o-phthalaldehyde, and dithiothreitol was measured on an Envision plate reader (PerkinElmer) with 405 nm excitation and 535 nm emission.
`COc1cc(C(=O)N2CC[C@@H](C)[C@@H](N)C2)cc2nc(-c3cc4ccc(N(C5CC5)S(C)(=O)=O)nc4n3CC3CC3)n(C)c12` [Example 34, N-(2-(5-((3R,4R)-3-amino-4-methylpiperidine-1-carbonyl)-7-methoxy-1-methyl-1H-benzo[d]imidazol-2-yl)-1-(cyclopropylmethyl)-1H-pyrrolo [2,3-b]pyridin-6-yl)-N-cyclopropylmethanesulfonamide] gave an IC50 of 300 nM. `CCN(c1ccc2cc(-c3nc4cc(C(=O)N5CCC[C@@H](N)[C@H]5C)cc(OC)c4n3C3CC3)n(CC3CC3)c2n1)S(C)(=O)=O` [Example 35, N-(2-(5-((2R,3R)-3-amino-2-methylpiperidine-1-carbonyl)-1-cyclopropyl-7-methoxy-1H-benzo[d]imidazol-2-yl)-1-(cyclopropylmethyl)-1H-pyrrolo [2,3-b]pyridin-6-yl)-N-ethylmethanesulfonamide] showed an IC50 of 141 nM. For `CCN(c1ccc2cc(-c3nc4cc(C(=O)N5CCC[C@@H](N)[C@H]5C)cc(OC)c4n3CC3COC3)n(CC3CC3)c2n1)S(C)(=O)=O` [Example 37, N-(2-(5-((2R,3R)-3-amino-2-methylpiperidine-1-carbonyl)-7-methoxy-1-(oxetan-3-ylmethyl)-1H-benzo[d]imidazol-2-yl)-1-(cyclopropylmethyl)-1H-pyrrolo [2,3-b]pyridin-6-yl)-N-ethylmethanesulfonamide], the IC50 was 235 nM. `COc1cc(C(=O)N2C[C@H](N)CC[C@@H]2C)cc2nc(-c3cc4ccc(N(C(F)F)S(C)(=O)=O)nc4n3CC3CC3)n(C)c12` [Example 38, N-(2-(5-((2S,5R)-5-amino-2-methylpiperidine-1-carbonyl)-7-methoxy-1-methyl-1H-benzo[d]imidazol-2-yl)-1-(cyclopropylmethyl)-1H-pyrrolo [2,3-b]pyridin-6-yl)-N-(difluoromethyl) methanesulfonamide] gave an IC50 of 93.4 nM. With `CCN(c1ccc2cc(-c3nc4cc(C(=O)N5CCC[C@@H](N)[C@H]5C)cc(OC)c4n3CC3(C)CC3)n(CC3CC3)c2n1)S(C)(=O)=O` [Example 40, N-(2-(5-((2R,3R)-3-amino-2-methylpiperidine-1-carbonyl)-7-methoxy-1-((1-methylcyclopropyl)methyl)-1H-benzo[d]imidazol-2-yl)-1-(cyclopropylmethyl)-1H-pyrrolo [2,3-b]pyridin-6-yl)-N-ethylmethanesulfonamide] the IC50 was 329 nM. For `CCN(c1ccc2cc(-c3nc4cc(C(=O)N5CCC[C@@H](N)[C@H]5C)cc(OC)c4n3CCOC)n(CC3CC3)c2n1)S(C)(=O)=O` [Example 41, N-(2-(5-((2R,3R)-3-amino-2-methylpiperidine-1-carbonyl)-7-methoxy-1-(2-methoxyethyl)-1H-benzo[d]imidazol-2-yl)-1-(cyclopropylmethyl)-1H-pyrrolo [2,3-b]pyridin-6-yl)-N-ethylmethanesulfonamide], the IC50 was 229 nM. In the case of `COc1cc(C(=O)N2C[C@H](N)CC[C@@H]2C)cc2nc(-c3cc4ccc(N(C(F)F)S(C)(=O)=O)nc4n3CC3CC3)n(C3CC3)c12` [Example 42, N-(2-(5-((2S,5R)-5-amino-2-methylpiperidine-1-carbonyl)-1-cyclopropyl-7-methoxy-1H-benzo[d]imidazol-2-yl)-1-(cyclopropylmethyl)-1H-pyrrolo [2,3-b]pyridin-6-yl)-N-(difluoromethyl) methanesulfonamide], the IC50 is reported as 221 nM. `[2H][C@@]1(N)CCCN(C(=O)c2cc(OC)c3c(c2)nc(-c2cc4ccc(N(C(F)F)S(C)(=O)=O)nc4n2CC2CC2)n3C)C1` [Example 45, (R)-N-(2-(5-(3-aminopiperidine-1-carbonyl-3-d)-7-methoxy-1-methyl-1H-benzo[d]imidazol-2-yl)-1-(cyclopropylmethyl)-1H-pyrrolo[2,3-b]pyridin-6-yl)-N-(difluoromethyl) methanesulfonamide] was tested, and the IC50 was 110 nM. With `[2H][C@]1(N)CCCN(C(=O)c2cc(OC)c3c(c2)nc(-c2cc4ccc(N(C(F)F)S(C)(=O)=O)nc4n2CC2CC2)n3C)C1` [Example 46, (S)-N-(2-(5-(3-aminopiperidine-1-carbonyl-3-d)-7-methoxy-1-methyl-1H-benzo[d]imidazol-2-yl)-1-(cyclopropylmethyl)-1H-pyrrolo[2,3-b]pyridin-6-yl)-N-(difluoromethyl) methanesulfonamide] the IC50 was 1160 nM. In the case of `COc1cc(C(=O)N2CCC[C@@H](N)[C@H]2C)cc2nc(-c3cc4ccc(N(C)S(C)(=O)=O)nc4n3C3CC3)n(C)c12` [Example 47, N-(2-(5-((2R,3R)-3-amino-2-methylpiperidine-1-carbonyl)-7-methoxy-1-methyl-1H-benzo[d]imidazol-2-yl)-1-cyclopropyl-1H-pyrrolo[2,3-b]pyridin-6-yl)-N-methylmethanesulfonamide], the IC50 is reported as 1730 nM. Compound `COc1cc(C(=O)N2C[C@H](N)CC[C@@H]2C)cc2nc(-c3cc4ccc(N(C(F)F)S(C)(=O)=O)nc4n3CC3CC3)n(C34CC(C3)C4)c12` [Example 48, N-(2-(5-((2S,5R)-5-amino-2-methylpiperidine-1-carbonyl)-1-(bicyclo[1.1.1]pentan-1-yl)-7-methoxy-1H-benzo[d]imidazol-2-yl)-1-(cyclopropylmethyl)-1H-pyrrolo[2,3-b]pyridin-6-yl)-N-(difluoromethyl) methane sulfonamide] has an IC50 of 2130 nM. In the case of `COc1cc(C(=O)N2CCC[C@@H](N)[C@H]2C)cc2nc(-c3cc4ccc(N(C)S(C)(=O)=O)nc4n3C3CC3)n(CC3CC3)c12` [Example 49, N-(2-(5-((2R,3R)-3-amino-2-methylpiperidine-1-carbonyl)-1-(cyclopropylmethyl)-7-methoxy-1H-benzo[d]imidazol-2-yl)-1-cyclopropyl-1H-pyrrolo[2,3-b]pyridin-6-yl)-N-methylmethanesulfonamide], the IC50 is reported as 487 nM. For `COc1cc(C(=O)N2[C@@H]3CC[C@@H](N)[C@H]2CC3)cc2nc(-c3cc4ccc(N(C(F)F)S(C)(=O)=O)nc4n3CC3CC3)n(C3CC3)c12` [Example 50, N-(2-(5-((1R,2R,5R)-2-amino-8-azabicyclo[3.2.1]octane-8-carbonyl)-1-cyclopropyl-7-methoxy-1H-benzo[d]imidazol-2-yl)-1-(cyclopropylmethyl)-1H-pyrrolo [2,3-b]pyridin-6-yl)-N-(difluoromethyl) methanesulfonamide], the IC50 was 145 nM. With `COc1cc(C(=O)N2CC[C@@H](O)[C@@H](N)C2)cc2nc(-c3cc4ccc(N(C(F)F)S(C)(=O)=O)nc4n3CC3CC3)n(C)c12` [Example 51, N-(2-(5-((3S,4R)-3-amino-4-hydroxypiperidine-1-carbonyl)-7-methoxy-1-methyl-1H-benzo[d]imidazol-2-yl)-1-(cyclopropylmethyl)-1H-pyrrolo [2,3-b]pyridin-6-yl)-N-(difluoromethyl) methanesulfonamide] the IC50 was 141 nM. With `COc1cc(C(=O)N2CCCC(C)(N)C2)cc2nc(-c3cc4ccc(N(C(F)F)S(C)(=O)=O)nc4n3CC3CC3)n(C)c12` (stereo not shown) [Example 52, N-(2-(5-(3-amino-3-methylpiperidine-1-carbonyl)-7-methoxy-1-methyl-1H-benzo[d]imidazol-2-yl)-1-(cyclopropylmethyl)-1H-pyrrolo [2,3-b]pyridin-6-yl)-N-(difluoromethyl) methanesulfonamide] the IC50 was 12700 nM. `CS(=O)(=O)N(c1ccc2cc(-c3nc4cc(C(=O)N5CCC[C@@H](N)C5)ccc4n3C3CC3)n(CC3CC3)c2n1)C(F)F` [Example 54, (R)-N-(2-(5-(3-aminopiperidine-1-carbonyl)-1-cyclopropyl-1H-benzo[d]imidazol-2-yl)-1-(cyclopropylmethyl)-1H-pyrrolo[2,3-b]pyridin-6-yl)-N-(difluoromethyl) methanesulfonamide] gave an IC50 of 37.4 nM.
